Reference: US20060211606A1, “Peptides” (priority 2005, published 2006)
Where no end group is shown, it is not given here. [ ]: non-standard residue; d: D form. The star is where a group is joined. Hexanoyl = CCCCCC(=O)*; PEG = not defined here; Ahx = NCCCCCC(=O)O

How the values were obtained:
[1] = tested on: C2C12 muscle cells; experiment: C2C12 proliferation, BrdU incorporation; assay type: cell-based, mouse; conditions: 500 cells per well; 0.1, 1, 10 and 100 ng/ml; stimulation 24 hours, BrdU 5 hours
Description: (B) Peptides A2, A4, A6 and A8: C2C12 muscle cells at a 500 cells/well. Cultivation was carried out for 24 hours in 10% FBS, followed by starvation for 24 hours in 0.1% BSA, stimulation for 24 hours and then treatment with BrdU for 5 hours. Concentrations of 0.1, 1, 10 and 100 ng/ml of peptides A2, A4, A6 and A8 were tested, along with 0.1, 1, 10 and 100 ng/ml IGF-I (See the right-hand set of results). BrdU incorporation was measured to assess the level of cell proliferation achieved. Controls containing no cells, medium only, 5% FBS and no BrdU were also provided. Values on the Y-axis are for fluorescence (absorbence at 370 nm; mean plus standard error across 4 wells). The first column on the left relates to a control in which no cells were present. The next four relate to peptide A2 at concentrations of 0.1, 1, 10 and 100 ng/ml. The next four relate to peptide A4 at concentrations of 0.1, 1, 10 and 100 ng/ml. The central three relate to controls containing medium only (med), 5% FBS) and no BrdU. The next four relate to peptide A6 at concentrations of 0.1, 1, 10 and 100 ng/ml. The next four relate to peptide A8 at concentrations of 0.1, 1, 10 and 100 ng/ml. The right-hand group of results relate to IGF-I (See Example 1.5) at concentrations of 0.1, 1, 10 and 100 ng/ml.
The 8 amino acid peptides described in 1.3.2 above and referred to in FIG. 8B as A2, A4, A6 and A8 were tested for the ability to induce proliferation of C2C12 muscle cells at a density of 500 cells per well. Cultivation was carried out for 24 hours in 10% FBS, followed by starvation for 24 hours in 0.1% BSA, stimulation for 24 hours and then treatment with BrdU for 5 hours. Concentrations of 0.1, 1, 10 and 100 ng/ml of peptides A2, A4, A6 and A8 were tested, along with 0.1, 1, 10 and 100 ng/ml IGF-I (See the right-hand set of results in FIG. 8B). Incorporation of BrdU was measured to assess the level of cell proliferation achieved. Controls containing no cells, medium only, 5% FBS and no BrdU were also provided.

[2] = tested on: C2C12 muscle cells; experiment: C2C12 proliferation, Alamar Blue assay; assay type: cell-based, mouse; conditions: 2000 cells per well; 2, 5, 50 and 100 ng/ml; medium with IGF-I 2 ng per ml; 36 hours
Description: (A) DMGF and CMGF Peptides: C2C12 Cells were provided at 2000 cell/well, in a medium containing DMEM (1000 mg/L glucose), plus BSA(100 ug/ml), plus IGF-I (2 ng per ml) and incubated for 36 hours. Cell proliferation was then assessed using an Alamar Blue assay. […] Y-axis values are fluorescence (wavelength of excitation 535 nm, measurement at 590 nm; mean plus standard error) in an Alamar Blue assay.
The 8 amino acid peptides described in 1.3.1 above and referred to in FIG. 8A as DMGF and CMGF were tested for the ability to induce proliferation of C2C12 muscle cells at a density of 2000 cells per well in a medium containing DMEM (1000 mg/L glucose), BSA (10 ug/ml) and IGF-I (2 ng per ml). Concentrations of 2, 5, 50 and 100 ng/ml of DMGF and CMGF were tested (See the left-hand and middle sets of results in FIG. 8), along with 2, 5, 50 and 100 ng/ml IGF-I alone (See the right-hand set of results in FIG. 8). After 36 hours incubation, an Alamar Blue assay was used to assess the level of cell proliferation achieved. A control containing only the medium was also provided.

[3] = tested on: mononucleated myoblasts (satellite cells); experiment: Myoblast replication, cell number by Alamar Blue method (0 to 3 scale); assay type: cell-based
Description: FIG. 2: Effect of Alanine substitution and C-terminal and N-terminal truncation on stability and biological activity—further sequence alignment, comparing modified sequences of Peptides 1-6 (SEQ ID NOS: 15-20) and Short peptides 1-4 (SEQ NOS: 21-24), and detailing impact of changes on stability as measured by incubation in human plasma and biological activity as measured by testing on muscle cell line (see Examples for details of test procedures).
In this regard, one method of assessing biological activity is the Alamar Blue method as discussed in Example 5.2.2. This involves contacting a polypeptide with mononucleated myoblast cells and assessing the extent to which it causes them to proliferate. This can be scored in any suitable way, e.g. on a scale of 0 to 3 as discussed in the Examples. Activity may also be measured via cyclins, such as cyclin ID, which are early markers of cell division. Activity may also be measured via the use of bromodeoxy uridine (BrdU).
Biological activity was determined using an in vitro system by measuring the ability of the C terminal peptides to induce mononucleated myoblasts (satellite cells) to replicate. Cell number was determined using the Alamar Blue method.

[4] = Stability to proteolytic cleavage in fresh human plasma, Western blotting
Description: Western blotting was then used to assess the survival of each peptide over those time intervals: A=0 minutes; B=30 minutes; C=2 hours; D=24 hours.
Stability may be assessed in terms of half-life in human plasma or by any other suitable technique. In particular, stability can be measured by assessing peptides' susceptibility to proteolytic cleavage in fresh human plasma according to the technique of Example 5.1 below, in which the plasma was stored until used at −70° C., 10 μg of peptide was added to 2 ml of plasma, plus 7 ml of PBS and the mixture was incubated at 37° C. for different time intervals. Western blotting was then used to detect each peptide over those time intervals.
The plasma was stored until used at −70° C. 10 μg of peptide were added to 2 ml of plasma, plus 7 ml of PBS. This mixture was incubated at 37° C. for different time intervals.
Like biological activity, stability was scored on a scale of 0 to 3.
Stability was determined as the amount of the peptide that remained intact and bound to the specific antibody in the following way:

Substance	proliferation of C2C12 cells (BrdU incorporation) [1]	biological activity score (scale of 0 to 3) [3]	other results
A2: Gly-Ser-Thr-Phe-Glu-Glu-Arg-Lys (SEQ ID NO:34), amidated at the C-terminus, unmodified at the N-terminus (H-GSTFEERK-NH2) [Peptide A2]	induced cell proliferation	–	–
A4: Gly-Ser-Thr-Phe-Glu-Glu-Arg-Lys (SEQ ID NO:34), amidated at the C-terminus, hexanoic acid moiety at the N-terminus (Hexanoyl-GSTFEERK-NH2; SMILES CCCCCC(=O)NCC(=O)N[C@@H](CO)C(=O)N[C@H](C(=O)N[C@@H](Cc1ccccc1)C(=O)N[C@@H](CCC(=O)O)C(=O)N[C@@H](CCC(=O)O)C(=O)N[C@@H](CCCNC(=N)N)C(=O)N[C@@H](CCCCN)C(N)=O)[C@@H](C)O) [Peptide A4]	induced cell proliferation	–	–
A6: Gly-Ser-Thr-Phe-Glu-Glu-Arg-Lys (SEQ ID NO:34), amidated at the C-terminus, amino-hexanoic acid moiety at the N-terminus ([Ahx]GSTFEERK-NH2; N-terminus assumed; SMILES C[C@@H](O)[C@H](NC(=O)[C@H](CO)NC(=O)CNC(=O)CCCCCN)C(=O)N[C@@H](Cc1ccccc1)C(=O)N[C@@H](CCC(=O)O)C(=O)N[C@@H](CCC(=O)O)C(=O)N[C@@H](CCCNC(=N)N)C(=O)N[C@@H](CCCCN)C(N)=O) [Peptide A6]	induced cell proliferation	–	–
A8: Gly-Ser-Thr-Phe-Glu-Glu-His-Lys (SEQ ID NO:33), amidated at the C-terminus, hexanoic acid at the N-terminus (Hexanoyl-GSTFEEHK-NH2; SMILES CCCCCC(=O)NCC(=O)N[C@@H](CO)C(=O)N[C@H](C(=O)N[C@@H](Cc1ccccc1)C(=O)N[C@@H](CCC(=O)O)C(=O)N[C@@H](CCC(=O)O)C(=O)N[C@@H](Cc1c[nH]cn1)C(=O)N[C@@H](CCCCN)C(N)=O)[C@@H](C)O) [Peptide A8]	induced cell proliferation	–	–
CMGF: Gly-Ser-Thr-Phe-Glu-Glu-His-Lys (SEQ ID NO:33), N-terminal hexanoic acid, amidated at the C-terminal end (Hexanoyl-GSTFEEHK-NH2; SMILES CCCCCC(=O)NCC(=O)N[C@@H](CO)C(=O)N[C@H](C(=O)N[C@@H](Cc1ccccc1)C(=O)N[C@@H](CCC(=O)O)C(=O)N[C@@H](CCC(=O)O)C(=O)N[C@@H](Cc1c[nH]cn1)C(=O)N[C@@H](CCCCN)C(N)=O)[C@@H](C)O)	–	–	proliferation of C2C12 cells (Alamar Blue fluorescence) [2]: induced cell proliferation
DMGF: Gly-Ser-Thr-Phe-Glu-Glu-His-Lys (SEQ ID NO:33), N-terminal PEGylation, amidated at the C-terminal end ({PEG}-GSTFEEHK-NH2; reading uncertain; also: printed as Gly-Ser-Thr-Phe-Glu-Glu-His-Lys)	–	–	proliferation of C2C12 cells (Alamar Blue fluorescence) [2]: induced cell proliferation
Short peptide 2: SEQ ID NO: 15 with Arg14→Ala and the four C-terminal amino acids removed (YQPPSTNKNTKSQARKGSTF)	–	zero	–
Short peptide 3: SEQ ID NO: 15 with Arg14→Ala and the three N-terminal amino acids removed (PSTNKNTKSQARKGSTFEEHK)	–	zero	–
Short peptide 4: SEQ ID NO: 15 with Arg14→Ala and the five N-terminal amino acids removed (TNKNTKSQARKGSTFEEHK)	–	zero	–
YQPPSTNKNTKAQRRKGSTFEEHK [Peptide 3]	–	3 (significant increase in cell number at 1 h.)	–
YQPPSTNKNTKSQAAKGSTFEEHK [Peptide 6]	–	zero	–
YQPPSTNKNTKSQRRKGSTFEEHK [Peptide 1]	–	–	biological activity (in words) [3]: little or no activity; stability score (scale of 0 to 3) ([4]; fresh human plasma, Western blotting, intact peptide bound to specific antibody): 1 (marked loss of detectable antibody binding by ½ hours.)
YQPPSTNKNTKSQRRKGSTFEERK [native human MGF C terminal Ec peptide, reference compound]	–	–	half-life in human plasma ([4]; human plasma): short half-life
